In ChEMBL document CHEMBL6087399, “Extended structure-activity relationship studies of the [1,2,5]oxadiazolo[3,4-b]pyrazine-containing colistin adjuvants” (Bioorg Med Chem Lett, 2025):
≈ marks a conversion by molar mass, not a printed value. Where a SMILES comes first, the peptide text is derived from it.

Tests used:
[1] = tested on: Escherichia coli; test: Potentiation of colistin-induced antibacterial activity against Escherichia coli AR-0493 assessed as minimum re-sensitizing concentration; type: functional; settings: read-out: MEC
[2] = tested on: Escherichia coli; test: Antibacterial activity against Escherichia coli AR-0493 by CLSI based susceptibility testing method; type: functional
[3] = Selectivity index, ratio of GI50 for cytotoxicity against human HepG2 cells to MEC for potentiation of colistin-induced antibacterial activity against Escherichia coli AR-0493 assessed as minimum re-sensitizing concentration; type: toxicity, cell-based; settings: read-out: Selectivity Index
[4] = Cytotoxicity against human HepG2 cells by Cell Titer Glo assay; type: toxicity, cell-based
[5] = tested on: Acinetobacter baumannii; test: Potentiation of colistin-induced antibacterial activity against Acinetobacter baumannii AR-0310 assessed as colistin MIC at 1 ug/ml; type: functional; settings: dose 1 µg/ml
[6] = tested on: Escherichia coli; test: Synergistic antibacterial activity against Escherichia coli AR-0493 assessed as fractional inhibitory concentration index in presence of colistin by Checkerboard broth microdilution assay; type: functional
[7] = tested on: Escherichia coli; test: Potentiation of colistin-induced antibacterial activity against Escherichia coli AR-0538 harboring mcr-2 gene assessed as colistin MIC at 1 ug/ml; type: functional; settings: dose 1 µg/ml
[8] = tested on: Salmonella typhimurium; test: Potentiation of colistin-induced antibacterial activity against Salmonella typhimurium AR-0635 harboring mcr-4 gene assessed as colistin MIC at 1 ug/ml; type: functional, Salmonella enterica subsp. enterica serovar Typhimurium; settings: Salmonella enterica, dose 1 µg/ml
[9] = tested on: Salmonella typhimurium; test: Potentiation of colistin-induced antibacterial activity against Salmonella typhimurium AR-0539 harboring mcr-3 gene assessed as colistin MIC at 1 ug/ml; type: functional, Salmonella enterica subsp. enterica serovar Typhimurium; settings: Salmonella enterica, dose 1 µg/ml
[10] = tested on: Klebsiella pneumoniae; test: Potentiation of colistin-induced antibacterial activity against Klebsiella pneumoniae AR-0497 harboring mcr-1 gene assessed as colistin MIC at 1 ug/ml; type: functional; settings: dose 1 µg/ml
[11] = tested on: Escherichia coli; test: Potentiation of colistin-induced antibacterial activity against Escherichia coli AR-0493 harboring mcr-1 gene assessed as colistin MIC at 1 ug/ml; type: functional; settings: dose 1 µg/ml
[12] = tested on: Pseudomonas aeruginosa; test: Potentiation of colistin-induced antibacterial activity against Pseudomonas aeruginosa AR-0239 assessed as colistin MIC at 1 ug/ml; type: functional; settings: dose 1 µg/ml
[13] = tested on: Escherichia coli; test: Antibacterial activity against Escherichia coli AR-0538 harboring mcr-2 gene; type: functional
[14] = tested on: Klebsiella pneumoniae; test: Antibacterial activity against Klebsiella pneumoniae AR-0497 harboring mcr-1 gene; type: functional
[15] = tested on: Escherichia coli; test: Antibacterial activity against Escherichia coli AR-0493 harboring mcr-1 gene; type: functional
[16] = tested on: Pseudomonas aeruginosa; test: Antibacterial activity against Pseudomonas aeruginosa AR-0239; type: functional
[17] = tested on: Salmonella typhimurium; test: Antibacterial activity against Salmonella typhimurium AR-0635 harboring mcr-4 gene; type: functional, Salmonella enterica subsp. enterica serovar Typhimurium; settings: Salmonella enterica
[18] = tested on: Acinetobacter baumannii; test: Antibacterial activity against Acinetobacter baumannii AR-0310; type: functional
[19] = tested on: Salmonella typhimurium; test: Antibacterial activity against Salmonella typhimurium AR-0539 harboring mcr-3 gene; type: functional, Salmonella enterica subsp. enterica serovar Typhimurium; settings: Salmonella enterica

CCCNc1nc2nonc2nc1NCCC
minimal effective concentration [1]: > 16 µg/mL

Nc1nc2nonc2nc1Nc1cccc(Cl)c1
minimal effective concentration [1]: 4 µg/mL

Clc1cccc(Nc2nc3nonc3nc2NC2CCCCC2)c1
minimal effective concentration [1]: 1 µg/mL

FC(F)(F)c1cccc(CNc2nc3nonc3nc2NCc2cccc(C(F)(F)F)c2)c1
minimal effective concentration [1]: > 16 µg/mL

Clc1ccc2[nH]cc(CCNc3nc4nonc4nc3NCCc3c[nH]c4ccc(Cl)cc34)c2c1
minimal effective concentration [1]: > 16 µg/mL

Clc1cccc(Nc2nc3nonc3nc2NCC2CCC2)c1
minimal effective concentration [1]: 1 µg/mL

Clc1cccc(Nc2nc3nonc3nc2NCCc2c[nH]c3ccc(Cl)cc23)c1
minimal effective concentration [1]: 1 µg/mL

Clc1cccc(Nc2nc3nonc3nc2NCC2COC2)c1
minimal effective concentration [1]: > 16 µg/mL

CCCCNc1nc2nonc2nc1NCCCC
minimal effective concentration [1]: 8 µg/mL

c1ccc2nc(NCCNc3nc4nonc4nc3NCCNc3ccc4ccccc4n3)ccc2c1
minimal effective concentration [1]: > 16 µg/mL

Clc1cccc(CNc2nc3nonc3nc2Nc2cccc(Cl)c2)c1
minimal effective concentration [1]: 0.5 µg/mL
MIC [2]: > 64 µg/mL
selectivity ratio [3]: 7.7
GI50 [4]: 3.8 µg/mL (≈ 9.81 µM)

CCCCCCCCNc1nc2nonc2nc1NCCCCCCCC
minimal effective concentration [1]: 4 µg/mL

CC(C)CCNc1nc2nonc2nc1NCCC(C)C
minimal effective concentration [1]: 2 µg/mL

C1CCC(Nc2nc3nonc3nc2NC2CCCC2)C1
minimal effective concentration [1]: 8 µg/mL

CCCCCCCCCCCCNc1nc2nonc2nc1NCCCCCCCCCCCC
minimal effective concentration [1]: > 16 µg/mL

C1CCC(Nc2nc3nonc3nc2NC2CCCCC2)CC1
minimal effective concentration [1]: 4 µg/mL

CCCCNc1nc2nonc2nc1Nc1cccc(Cl)c1
minimal effective concentration [1]: 0.5 µg/mL
MIC [2]: > 64 µg/mL
selectivity ratio [3]: 11
GI50 [4]: 5.7 µg/mL (≈ 17.9 µM)

Clc1cccc(Nc2nc3nonc3nc2NCCc2ccccc2)c1
minimal effective concentration [1]: 0.5 µg/mL
MIC [2]: > 64 µg/mL
selectivity ratio [3]: 1.7
GI50 [4]: 0.83 µg/mL (≈ 2.26 µM)

FC(F)(F)Oc1cccc(CNc2nc3nonc3nc2Nc2cccc(Cl)c2)c1
minimal effective concentration [1]: 1 µg/mL

CCCCCCCNc1nc2nonc2nc1Nc1cccc(Cl)c1
minimal effective concentration [1]: 0.5 µg/mL
MIC [2]: > 64 µg/mL
selectivity ratio [3]: 6.6
GI50 [4]: 3.3 µg/mL (≈ 9.15 µM)

CCCCCCCCCCNc1nc2nonc2nc1Nc1cccc(Cl)c1
minimal effective concentration [1]: 2 µg/mL

FC1(F)CC(CNc2nc3nonc3nc2Nc2cccc(Cl)c2)C1
minimal effective concentration [1]: 1 µg/mL

Clc1ccc(CNc2nc3nonc3nc2NCc2ccc(Cl)cc2)cc1
MIC [5]: 0.5 µg/mL
fractional inhibitory concentration index (FICI) [6]: 0.07
MIC [7]: 1 µg/mL
MIC [8]: 2 µg/mL
MIC [9]: 1 µg/mL
MIC [10]: 2 µg/mL
minimal effective concentration [1]: 0.125 µg/mL
MIC [11]: 0.5 µg/mL
MIC [2]: > 64 µg/mL
MIC [12]: 1 µg/mL
selectivity ratio [3]: 36
GI50 [4]: 4.5 µg/mL (≈ 11.2 µM)

CCCCCCNc1nc2nonc2nc1NCCCCCC
minimal effective concentration [1]: 0.5 µg/mL
MIC [2]: > 64 µg/mL
selectivity ratio [3]: 1.2
GI50 [4]: 0.59 µg/mL (≈ 1.84 µM)

Clc1cccc(Nc2nc3nonc3nc2NC2CC2)c1
minimal effective concentration [1]: 1 µg/mL

[H][C@@]1([C@@H](C)O)NC(=O)[C@H](CCN)NC(=O)[C@H](CCN)NC(=O)[C@H](CC(C)C)NC(=O)[C@@H](CC(C)C)NC(=O)[C@H](CCN)NC(=O)[C@@H](NC(=O)[C@H](CCN)NC[C@H](NC(=O)[C@H](CCN)NC(=O)CCCCC(C)C)[C@@H](C)O)CCNC1=O.[H][C@@]1([C@@H](C)O)NC(=O)[C@H](CCN)NC(=O)[C@H](CCN)NC(=O)[C@H](CC(C)C)NC(=O)[C@@H](CC(C)C)NC(=O)[C@H](CCN)NC(=O)[C@@H](NC(=O)[C@H](CCN)NC[C@H](NC(=O)[C@H](CCN)NC(=O)CCCCC(C)CC)[C@@H](C)O)CCNC1=O (stereo partly drawn) (HELM PEPTIDE1{[C[C@@H](O)[C@H](CN[C@@H](CCN)C(=O)[*:2])N[*:3]].[Dab].[Dab].[dL].L.[Dab].[Dab].T}|PEPTIDE2{[CCC(C)CCCCC(=O)[*:2]].[Dab]}$PEPTIDE1,PEPTIDE2,1:R3-2:R2|PEPTIDE1,PEPTIDE1,2:R3-8:R2$$$V2.0)
MIC [13]: 8 µg/mL
MIC [14]: 16 µg/mL
MIC [15]: 8 µg/mL
MIC [16]: 4 µg/mL
MIC [17]: 16 µg/mL
MIC [18]: 8 µg/mL
MIC [19]: 8 µg/mL

CCCCCCCCNc1nc2nonc2nc1Nc1cccc(Cl)c1
minimal effective concentration [1]: 1 µg/mL
